Read-outs that look alike come from different tables or passages of the source.
Columns and labels:
[1] = biological target: KDR (Homo sapiens (Human), UniProt P35968); assay: LanthaScreen Eu TR-FRET KDR competitive binding assay; conditions: read-out: IC50 (nM) KDR; mean±S.D. (n=3); competitive binding
[2] = biological target: AMPKα1 (Homo sapiens (Human), UniProt Q13131); assay: LANCE Eu TR-FRET recombinant kinase assay, AMPK(α1); format: biochemical; conditions: mean±S.D. (n=3); ATP 8 μM; read-out: IC50 (nM) AMPK(α1)
Procedure: Assays were performed at 25° C. in a reaction mixture consisting of 2.5 μL serially diluted inhibitor solution, 2.5 μL kinase, 2.5 μL ATP and 2.5 μL substrate. Reagents were incubated for 1 hr before the reaction was halted through the addition of EDTA (10 mM) after which Eu anti-phospho-CREB (Ser133) antibody (PerkinElmer) was added at a final concentration of 2 nM for 1 hr. […] (n=3)).

[3] = biological target: 468 kinases (Homo sapiens, UniProt P36507); assay: biochemical; format: binding; conditions: MEK2; read-out: % Inhibition @ 100 nM
[4] = biological target: 468 kinases (Homo sapiens, UniProt P42336, E545K); assay: biochemical; format: binding; conditions: PIK3CA(E545K); read-out: % Inhibition @ 100 nM
[5] = biological target: 468 kinases (Homo sapiens, UniProt O60331); assay: biochemical; format: binding; conditions: PIPSK1C; read-out: % Inhibition @ 100 nM
[6] = biological target: 468 kinases (Homo sapiens, UniProt P80192); assay: biochemical; format: binding; conditions: MLK1; read-out: % Inhibition @ 100 nM
[7] = biological target: 468 kinases (Homo sapiens, UniProt Q99759); assay: biochemical; format: binding; conditions: MAP3K3; read-out: % Inhibition @ 100 nM
[8] = biological target: 468 kinases (Homo sapiens, UniProt P57058); assay: biochemical; format: binding; conditions: HUNK; read-out: % Inhibition @ 100 nM
[9] = biological target: 468 kinases (Homo sapiens, UniProt P24723); assay: biochemical; format: binding; conditions: PRKCH; read-out: % Inhibition @ 100 nM
[10] = biological target: 468 kinases (Homo sapiens, UniProt Q8NEB9); assay: biochemical; format: binding; conditions: VPS34; read-out: % Inhibition @ 100 nM
[11] = biological target: 468 kinases (Homo sapiens, UniProt Q8WU08); assay: biochemical; format: binding; conditions: YANK1; read-out: % Inhibition @ 100 nM
[12] = biological target: 468 kinases (Homo sapiens, UniProt P07949, V804M); assay: biochemical; format: binding; conditions: RET(V804M); read-out: % Inhibition @ 100 nM
[13] = biological target: 468 kinases (Homo sapiens, UniProt P52564); assay: biochemical; format: binding; conditions: MEK6; read-out: % Inhibition @ 100 nM
[14] = biological target: 468 kinases (Homo sapiens, UniProt Q9BWU1); assay: biochemical; format: binding; conditions: CDK11; read-out: % Inhibition @ 100 nM
[15] = biological target: 468 kinases (Homo sapiens, UniProt P57059); assay: biochemical; format: binding; conditions: SIK; read-out: % Inhibition @ 100 nM
[16] = biological target: 468 kinases (Homo sapiens, UniProt Q9UM73, C1156Y); assay: biochemical; format: binding; conditions: ALK(C1156Y); read-out: % Inhibition @ 100 nM
[17] = biological target: 468 kinases (Homo sapiens, UniProt O00141); assay: biochemical; format: binding; conditions: SGK; read-out: % Inhibition @ 100 nM
[18] = biological target: 468 kinases (Homo sapiens, UniProt Q9Y2U5); assay: biochemical; format: binding; conditions: MAP3K2; read-out: % Inhibition @ 100 nM
[19] = biological target: 468 kinases (Homo sapiens, UniProt P54753); assay: biochemical; format: binding; conditions: EPHB3; read-out: % Inhibition @ 100 nM
[20] = biological target: 468 kinases (Homo sapiens, UniProt P21709); assay: biochemical; format: binding; conditions: EPHA1; read-out: % Inhibition @ 100 nM
[21] = biological target: 468 kinases (Homo sapiens, UniProt Q9P289); assay: biochemical; format: binding; conditions: MST4; read-out: % Inhibition @ 100 nM
[22] = biological target: 468 kinases (Homo sapiens, UniProt Q15418); assay: biochemical; format: binding; conditions: read-out: % Inhibition @ 100 nM
[23] = biological target: 468 kinases (Homo sapiens, UniProt P49137); assay: biochemical; format: binding; conditions: MAPKAPK2; read-out: % Inhibition @ 100 nM
[24] = biological target: 468 kinases (Homo sapiens, UniProt P42680); assay: biochemical; format: binding; conditions: TEC; read-out: % Inhibition @ 100 nM
[25] = biological target: 468 kinases (Homo sapiens, UniProt P17612); assay: biochemical; format: binding; conditions: PKAC-alpha; read-out: % Inhibition @ 100 nM
[26] = biological target: 468 kinases (Homo sapiens, UniProt P28482); assay: biochemical; format: binding; conditions: ERK2; read-out: % Inhibition @ 100 nM
[27] = biological target: 468 kinases (Homo sapiens, UniProt O75914); assay: biochemical; format: binding; conditions: PAK3; read-out: % Inhibition @ 100 nM
[28] = biological target: AMPK(α2) (Homo sapiens (Human), UniProt P54646); assay: Kinome binding analysis at 100 nM, AMPK(α2); conditions: AMPK-alpha2
[29] = biological target: JAK1-JH2 domain pseudokinase (Homo sapiens (Human), UniProt P23458); assay: Kinome binding analysis at 100 nM, JAK1 JH2 pseudokinase; conditions: read-out: Percentage inhibition at 100 nM, JAKI JH2-pseudokinase
[30] = biological target: CSF1R (Homo sapiens (Human), UniProt P07333); assay: Kinome binding analysis at 100 nM, CSF1R; conditions: read-out: Percentage inhibition at 100 nM, CSF1R

CCN(CC)CCNC(=O)c1c(C)[nH]c(/C=C2\C(=O)Nc3ccc(CCC(N)=O)cc32)c1C [Compound No. 16, (Z)-5-((5-(3-Amino-3-oxopropyl)-2-oxoindolin-3-ylidene)methyl)-N-(2-(diethylamino)ethyl)-2,4-dimethyl-1H-pyrrole-3-carboxamide]
IC50 [1]: 3820 ± 530 nM | IC50 [2]: 107 ± 17 nM | inhibition at 0.1 µM [3]: 83% | inhibition at 0.1 µM [4]: 41% | inhibition at 0.1 µM [5]: 15% | inhibition at 0.1 µM [6]: 5% | inhibition at 0.1 µM [7]: 48% | inhibition at 0.1 µM [8]: 0% | inhibition at 0.1 µM [9]: 0% | inhibition at 0.1 µM [10]: 46% | inhibition at 0.1 µM [11]: 23% | inhibition at 0.1 µM [12]: 99.3% | inhibition at 0.1 µM [13]: 25% | inhibition at 0.1 µM [14]: 3% | inhibition at 0.1 µM [15]: 9% | inhibition at 0.1 µM [16]: 86% | inhibition at 0.1 µM [17]: 47% | inhibition at 0.1 µM [18]: 29% | inhibition at 0.1 µM [19]: 0% | inhibition at 0.1 µM [20]: 0% | inhibition at 0.1 µM [21]: 37% | inhibition at 0.1 µM ([22]; RSK1(Kin.Dom.1-N-terminal)): 20% | inhibition at 0.1 µM ([22]; RSK1(Kin.Dom.2-C-terminal)): 30% | inhibition at 0.1 µM [23]: 0% | inhibition at 0.1 µM [24]: 0% | inhibition at 0.1 µM [25]: 0% | inhibition at 0.1 µM [26]: 6% | inhibition at 0.1 µM [27]: 13% | inhibition at 0.1 µM [28]: 35% | inhibition at 0.1 µM [29]: 41% | inhibition at 0.1 µM [30]: 18%

CCN(CC)CCNC(=O)c1c(C)[nH]c(/C=C2\C(=O)Nc3ccc(CCO)cc32)c1C [Compound No. 10, (Z)—N-(2-(Diethylamino)ethyl)-5-((5-(2-hydroxyethyl)-2-oxoindolin-3-ylidene)methyl)-2,4-dimethyl-1H-pyrrole-3-carboxamide]
IC50 [1]: 848 ± 41 nM | IC50 [2]: 173 ± 15 nM | inhibition at 0.1 µM [3]: 90.4% | inhibition at 0.1 µM [4]: 56% | inhibition at 0.1 µM [5]: 32% | inhibition at 0.1 µM [6]: 1% | inhibition at 0.1 µM [7]: 59% | inhibition at 0.1 µM [8]: 13% | inhibition at 0.1 µM [9]: 1% | inhibition at 0.1 µM [10]: 25% | inhibition at 0.1 µM [11]: 0% | inhibition at 0.1 µM [12]: 86% | inhibition at 0.1 µM [13]: 11% | inhibition at 0.1 µM [14]: 12% | inhibition at 0.1 µM [15]: 0% | inhibition at 0.1 µM [16]: 90% | inhibition at 0.1 µM [17]: 2% | inhibition at 0.1 µM [18]: 77% | inhibition at 0.1 µM [19]: 0% | inhibition at 0.1 µM [20]: 0% | inhibition at 0.1 µM [21]: 0% | inhibition at 0.1 µM ([22]; RSK1(Kin.Dom.1-N-terminal)): 4% | inhibition at 0.1 µM ([22]; RSK1(Kin.Dom.2-C-terminal)): 0% | inhibition at 0.1 µM [23]: 0% | inhibition at 0.1 µM [24]: 0% | inhibition at 0.1 µM [25]: 0% | inhibition at 0.1 µM [26]: 8% | inhibition at 0.1 µM [27]: 36% | inhibition at 0.1 µM [28]: 64% | inhibition at 0.1 µM [29]: 54% | inhibition at 0.1 µM [30]: 24%
